{
  "source": "paper PMC9466626",
  "about": "“Discovery of new 1H-pyrazolo[3,4-d]pyrimidine derivatives as anticancer agents targeting EGFR^WT and EGFR^T790M” (Journal of Enzyme Inhibition and Medicinal Chemistry, 2022)",
  "key": {"A549": {"system": "A549", "assay": "In vitro anti-proliferative MTT assay, A549", "format": "cell-based, human", "details": "for pIC50: Homo sapiens, A549", "procedure": "These two cell lines were selected in this test due to the overexpression of EGFR in human lung and colon cancer cell lines[48]^,[49]. The tested cells were reported to have a high expression level of EGFR. […]\n(§1) 1.1. In vitro antiproliferative activities\nThe in vitro antiproliferative activities of all the synthesized compounds against two human […]\nevaluated quantitatively as described in the literature, using MTT assay protocol . two […]\nproliferative activity was assessed quantitatively as follows.\n(§2) Human cancer cell lines were dropped in 96 -well plates at a density of 3-8 × 10^3 cells/well.\nNext, the wells were incubated for 12 h in a 5% CO 2 incubator at 37 °C. Then, for each well, the growth medium was exchanged with 0.1 ml of fresh medium containing graded concentrations of the test compounds to be or equal DMSO and incubated for two days. Then 10 μl MTT solution ([…]) was added to each well, and the cells were incubated for additional 4 h. The crystals of MTT-formazan were dissolved in 100 μl of DMSO; the absorbance of each well was measured at 490 nm using an automatic ELISA reader system (TECAN, CHE). The IC 50 values were calculated using the nonlinear regression fitting models (Graph Pad, Prism Version 5). The data represented the mean of three independent experiments in triplicate and were expressed as means ± SD. The […]\n(§3) The results were expressed as growth inhibitory concentration (IC50) values and […]"}, "HCT-116": {"system": "HCT-116", "assay": "In vitro anti-proliferative MTT assay, HCT-116", "format": "cell-based, human", "procedure": "The cytotoxic activities of the synthesised compounds were assessed against two human cancer cell lines (lung, A549) and (colon HCT-116) using an MTT assay. These two cell lines were selected in this test due to the overexpression of EGFR in human lung and colon cancer cell lines[48]^,[49]. The tested cells were reported to have a high expression level of EGFR.\nIn vitro cytotoxicity was carried out for the synthesised compounds against A549, HCT-116, and WI-38 cell lines using the MTT assay protocol[52–55] as described in Supplementary data. […]\nas §1\nThe in vitro antiproliferative activities of all the synthesized compounds against two human tumor cell lines namely, (lung, A549) and (colon HCT-116) and one normal cell line (WI-38) were evaluated quantitatively as described in the literature, using MTT assay protocol . two commercially available drugs (erlotinib) were used in this test as positive controls. The anti-proliferative activity was assessed quantitatively as follows.\nas §2\nNext, the wells were incubated for 12 h in a 5% CO 2 incubator at 37 °C. Then, for each well, the growth medium was exchanged with 0.1 ml of fresh medium containing graded concentrations of the test compounds to be or equal DMSO and incubated for two days. Then 10 μl MTT solution ([…]) was added to each well, and the cells were incubated for additional 4 h. The crystals of MTT-formazan were dissolved in 100 μl of DMSO; the absorbance of each well was measured at 490 nm using an automatic ELISA reader system (TECAN, CHE). The IC 50 values were calculated using the nonlinear regression fitting models (Graph Pad, Prism Version 5). The data represented the mean of three independent experiments in triplicate and were expressed as means ± SD. The IC50 value was defined as the concentration at which 50% of the cells could survive.\nas §3"}, "EGFR^WT": {"molecular_target": "T1, EGFR^WT (Homo sapiens, UniProt P00533)", "T1 construct": "purchased Sigma", "T1 sequence (P00533 25-1210)": "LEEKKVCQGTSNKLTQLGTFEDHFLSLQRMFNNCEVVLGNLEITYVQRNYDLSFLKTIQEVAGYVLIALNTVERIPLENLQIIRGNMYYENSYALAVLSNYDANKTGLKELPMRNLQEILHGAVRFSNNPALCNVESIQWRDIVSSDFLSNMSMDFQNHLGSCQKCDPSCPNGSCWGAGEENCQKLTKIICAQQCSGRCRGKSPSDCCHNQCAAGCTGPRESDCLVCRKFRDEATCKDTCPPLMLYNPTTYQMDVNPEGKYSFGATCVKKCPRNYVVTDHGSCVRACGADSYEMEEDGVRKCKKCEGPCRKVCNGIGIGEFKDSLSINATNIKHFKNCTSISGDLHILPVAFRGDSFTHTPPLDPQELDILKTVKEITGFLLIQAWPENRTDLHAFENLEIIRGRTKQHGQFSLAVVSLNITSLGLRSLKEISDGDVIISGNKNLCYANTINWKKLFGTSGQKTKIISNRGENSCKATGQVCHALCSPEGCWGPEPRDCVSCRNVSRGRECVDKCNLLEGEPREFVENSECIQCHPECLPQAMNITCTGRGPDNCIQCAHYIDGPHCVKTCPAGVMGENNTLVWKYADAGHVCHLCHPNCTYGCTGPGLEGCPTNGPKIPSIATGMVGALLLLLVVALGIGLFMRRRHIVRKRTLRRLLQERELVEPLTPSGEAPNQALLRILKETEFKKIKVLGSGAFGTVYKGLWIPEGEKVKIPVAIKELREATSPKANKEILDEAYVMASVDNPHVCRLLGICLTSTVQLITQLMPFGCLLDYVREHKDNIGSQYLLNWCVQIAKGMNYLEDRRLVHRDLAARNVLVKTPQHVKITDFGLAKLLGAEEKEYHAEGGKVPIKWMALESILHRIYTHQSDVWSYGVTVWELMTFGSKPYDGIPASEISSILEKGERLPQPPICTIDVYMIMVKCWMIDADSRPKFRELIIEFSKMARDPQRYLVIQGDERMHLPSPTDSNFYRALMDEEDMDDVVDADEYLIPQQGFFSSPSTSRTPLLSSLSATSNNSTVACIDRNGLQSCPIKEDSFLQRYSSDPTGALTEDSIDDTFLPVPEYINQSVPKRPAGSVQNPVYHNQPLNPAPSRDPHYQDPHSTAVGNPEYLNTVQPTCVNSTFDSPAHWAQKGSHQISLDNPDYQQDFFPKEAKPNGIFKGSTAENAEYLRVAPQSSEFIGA", "assay": "EGFR^WT kinase inhibitory assay (HTRF)", "format": "biochemical", "procedure": "(§4) In vitro EGFR inhibitory activity was assessed using a Homogeneous time-resolved fluorescence (HTRF) assay[56] as described in Supplementary data.\n(§5) 4.1.1. EGFRWT and EGFRT790M kinase inhibitory assay […]\n(§6) against four cancer cell lines were further examined for their inhibitory activities against both […]\n(§7) Homogeneous time resolved fluorescence (HTRF) assay was applied in this test. EGFRWT, EGFRT790M (Sigma). firstly, the EGFRWT and/or EGFRT790M and their substrates were incubated with the tested compounds in enzymatic buffer for 5 min. […]\n(§8) the enzymatic reaction. The assay was conducted for 30 min at room temperature. The reaction was stopped by addition of detection reagents which contain EDTA. The detection step continued […]\n(§9) experiments were performed for each concentration. […]"}, "EGFR^T790M": {"molecular_target": "T2, EGFR^T790M (Homo sapiens, UniProt P00533, T790M)", "T2 construct": "purchased Sigma", "T2 sequence (P00533 25-1210 T790M)": "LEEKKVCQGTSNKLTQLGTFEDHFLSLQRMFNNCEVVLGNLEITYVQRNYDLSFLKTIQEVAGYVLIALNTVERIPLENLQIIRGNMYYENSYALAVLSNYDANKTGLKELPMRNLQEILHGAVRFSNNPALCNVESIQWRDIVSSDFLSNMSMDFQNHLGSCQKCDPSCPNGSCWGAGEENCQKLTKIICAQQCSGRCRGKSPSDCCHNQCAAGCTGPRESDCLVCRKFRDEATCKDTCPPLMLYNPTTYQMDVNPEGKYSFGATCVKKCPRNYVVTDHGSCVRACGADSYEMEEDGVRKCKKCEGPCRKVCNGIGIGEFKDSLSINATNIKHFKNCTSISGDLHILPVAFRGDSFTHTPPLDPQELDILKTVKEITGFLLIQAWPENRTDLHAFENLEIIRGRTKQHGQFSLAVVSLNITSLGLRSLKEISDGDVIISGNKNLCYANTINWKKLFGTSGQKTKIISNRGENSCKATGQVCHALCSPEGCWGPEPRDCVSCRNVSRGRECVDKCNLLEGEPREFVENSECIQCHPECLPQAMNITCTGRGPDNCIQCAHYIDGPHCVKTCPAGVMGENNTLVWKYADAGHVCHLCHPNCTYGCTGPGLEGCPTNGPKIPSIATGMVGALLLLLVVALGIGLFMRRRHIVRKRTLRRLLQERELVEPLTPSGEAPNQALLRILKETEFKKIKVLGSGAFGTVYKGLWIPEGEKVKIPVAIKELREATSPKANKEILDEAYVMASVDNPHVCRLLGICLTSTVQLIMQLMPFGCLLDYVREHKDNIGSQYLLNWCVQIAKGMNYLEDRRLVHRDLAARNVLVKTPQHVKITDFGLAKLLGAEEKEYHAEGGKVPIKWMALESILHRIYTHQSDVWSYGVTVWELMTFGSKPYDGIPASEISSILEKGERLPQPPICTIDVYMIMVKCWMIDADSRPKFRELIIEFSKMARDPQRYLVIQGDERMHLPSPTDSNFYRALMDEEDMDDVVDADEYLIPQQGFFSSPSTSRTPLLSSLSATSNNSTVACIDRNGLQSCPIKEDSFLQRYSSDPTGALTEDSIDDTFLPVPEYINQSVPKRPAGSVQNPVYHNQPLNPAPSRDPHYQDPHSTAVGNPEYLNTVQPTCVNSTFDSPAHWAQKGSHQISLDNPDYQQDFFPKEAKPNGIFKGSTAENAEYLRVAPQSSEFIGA", "assay": "EGFR^T790M kinase inhibitory assay (HTRF)", "format": "biochemical", "procedure": "as §4, §5, §6, §7, §8, §9"}, "A549 cells": {"system": "A549 cells", "assay": "Annexin V-FITC apoptosis assay", "format": "cell-based, human", "procedure": "The effect of compound 12b on cell apoptosis was investigated as described in Supplementary data[59]. […]\n4.1.3. Annexin V-FITC apoptosis assay.\nTo detect the apoptosis induced by compound 12b, a549 cells were seeded and incubated overnight and then treated with compound 12b at concentrations of 8.21 µM µM for 48 h. DMSO was chosen as the negative control. After that, the cells were collected and washed with PBS two successive times. The cells were exposed to centrifugation. Apoptosis detection kit (BD Biosciences, San Jose, CA) was used in this test. According to the manufacturer's protocol the cells were stained by Annexin V-FITC and propidium iodide (PI) in the binding buffer for 20min at room temperature in the dark. Using a flow cytometer, Annexin V-FITC and PI binding were analyzed. flowjo software was used to analyze the frequencies in all quadrants."}, "BAX": {"system": "BAX", "assay": "qRT-PCR gene expression of BAX in A549 cells", "format": "cell-based, human", "details": "A549, 48 h, control set to 1", "procedure": "(§10) The effect of compound 12b on the expression of BAX and Bcl‐2 was determined using qRT-PCR as described in Supplementary data[60–62]."}, "Bcl-2": {"system": "Bcl-2", "assay": "qRT-PCR gene expression of Bcl-2 in A549 cells", "format": "cell-based, human", "details": "A549, 48 h", "procedure": "as §10"}, "BAX/Bcl-2 ratio": {"system": "BAX/Bcl-2 ratio", "assay": "BAX/Bcl-2 ratio from qRT-PCR in A549 cells", "format": "cell-based, human", "details": "A549, 48 h, control set to 1", "procedure": "as §10"}, "in vitro": {"assay": "in vitro", "details": "human, WI-38 normal cells", "protocol": "(§11) Next, the wells were incubated for 12 h in a 5% CO 2 incubator at 37 °C. Then, for each well, the growth medium was exchanged with 0.1 ml of fresh medium containing graded concentrations of the test compounds to be or equal DMSO and incubated for two days. Then 10 μl MTT solution (5 μg/ml) was added to each well, and the cells were incubated for additional 4 h. The crystals of MTT-formazan were dissolved in 100 μl of DMSO; the absorbance of each well was measured at 490 nm using an automatic ELISA reader system (TECAN, CHE). The IC 50 values were calculated using the nonlinear regression fitting models (Graph Pad, Prism Version 5). The data represented the mean of three independent experiments in triplicate and were expressed as means ± SD."}, "WI-38": {"system": "WI-38", "assay": "In vitro cytotoxicity against normal cells (MTT), WI-38", "protocol": "as §11"}, "[1]": {"details": "supplement graph, axis Log (nM)"}, "[2]": {"details": "A549, 48 h, mean ± SEM, listed as 12 b"}},
  "note": "pIC50: −log10 of the molar value. Where “and” joins values, the source holds several entries; their conditions need not be identical. Equal entries are not always repeated. Where two headings read alike, the source gives them in different places.",
  "data": [
    {"smiles": "CC(=NNc1nc(Nc2ccccc2)nc2c1cnn2-c1ccccc1)c1ccc(Cl)cc1", "note": "[Compound 12b, 4–(2-(1–(4-Chlorophenyl)ethylidene)hydrazinyl)-N,1-diphenyl-1H-pyrazolo[3,4-d]pyrimidin-6-amine]", "values": [
      {"measurement": "pIC50", "setting": "A549; MTT, mean of three experiments, read-out: In vitro cytotoxicity IC50, A549", "result": 5.09},
      {"measurement": "pIC50", "setting": "A549; supplement IC50 graph, unit inferred, read-out: IC50 (best-fit value of graph), A549", "result": 5.09},
      {"measurement": "HillSlope (best-fit value), A549", "setting": "A549; supplement IC50 graph", "result": -0.3430},
      {"measurement": "LogIC50 (best-fit value), A549", "setting": "A549; supplement IC50 graph", "result": 0.9146},
      {"measurement": "pIC50", "setting": "HCT-116; Homo sapiens, HCT-116, MTT, mean of three experiments, read-out: In vitro cytotoxicity IC50, HCT-116", "result": 4.71},
      {"measurement": "HillSlope (best-fit value), HCT-116", "setting": "HCT-116; supplement IC50 graph", "result": -0.3805},
      {"measurement": "LogIC50 (best-fit value), HCT-116", "setting": "HCT-116; supplement IC50 graph", "result": 1.291},
      {"measurement": "pIC50", "setting": "EGFR^WT; HTRF, mean of three experiments, read-out: EGFR^WT IC50", "result": 7.80},
      {"measurement": "HillSlope (best-fit value), EGFR inhibition", "setting": "EGFR^WT; supplement graph", "result": -0.3524},
      {"measurement": "LogIC50 (best-fit value), EGFR inhibition", "setting": "EGFR^WT; [1]", "result": 1.193},
      {"measurement": "IC50", "setting": "EGFR^WT; supplement graph, axis Log (nM), read-out: IC50 (best-fit value of graph), EGFR inhibition", "result": 15.6, "unit": "nM"},
      {"measurement": "fold more potent than erlotinib against EGFR^T790M", "setting": "EGFR^T790M", "result": 2.4, "unit": "fold"},
      {"measurement": "pIC50", "setting": "EGFR^T790M; HTRF, mean of three experiments, read-out: EGFR^T790M IC50", "result": 6.63},
      {"measurement": "HillSlope (best-fit value), EGFRT790M inhibition", "setting": "EGFR^T790M; supplement graph", "result": -0.3418},
      {"measurement": "LogIC50 (best-fit value), EGFRT790M inhibition", "setting": "EGFR^T790M; [1]", "result": 2.372},
      {"measurement": "IC50", "setting": "EGFR^T790M; supplement graph, axis Log (nM), read-out: IC50 (best-fit value of graph), EGFRT790M inhibition", "result": 235, "unit": "nM"},
      {"measurement": "Apoptosis Early (Right Bottom)", "setting": "A549 cells; A549, 48 h, mean ± SEM", "result": 67.69, "unit": "%"},
      {"measurement": "Apoptosis Late (Right Top)", "setting": "A549 cells; A549, 48 h, mean ± SEM", "result": 0.64, "unit": "%"},
      {"measurement": "Necrosis (Left Top)", "setting": "A549 cells; A549, 48 h, mean ± SEM", "result": "0.10 ± 0.02", "unit": "%"},
      {"measurement": "Viable (Left Bottom)", "setting": "A549 cells; A549, 48 h, mean ± SEM", "result": "31.57 ± 4.64", "unit": "%"},
      {"measurement": "Apoptosis Early (Right Bottom)", "setting": "A549 cells; [2]", "result": "67.69 ± 4.86", "unit": "%"},
      {"measurement": "Apoptosis Late (Right Top)", "setting": "A549 cells; [2]", "result": "0.64 ± 0.30", "unit": "%"},
      {"measurement": "fold decrease in the ratio of viable cells", "setting": "A549 cells; vs untreated A549, 48 h", "result": 3, "unit": "fold"},
      {"measurement": "fold increase in the early apoptosis ratio", "setting": "A549 cells; vs untreated A549, 48 h", "result": 11, "unit": "fold"},
      {"measurement": "fold increase in the late apoptosis ratio", "setting": "A549 cells; vs untreated A549, 48 h", "result": 1.5, "unit": "fold"},
      {"measurement": "Gene expression (Fold Change) BAX", "setting": "BAX", "result": "3.3 Fold Change and 3.33 ± 0.37 Fold Change"},
      {"measurement": "Gene expression (Fold Change) Bcl-2", "setting": "Bcl-2; control set to 1", "result": "0.40 ± 0.08", "unit": "Fold Change"},
      {"measurement": "fold decrease in Bcl-2 gene expression", "setting": "Bcl-2; vs untreated", "result": 2.5, "unit": "fold"},
      {"measurement": "Gene expression (Fold Change) BAX/Bcl-2 ratio", "setting": "BAX/Bcl-2 ratio", "result": "8.8 Fold Change and 8.80 ± 1.41 Fold Change"},
      {"measurement": "IC50 at 2 days", "setting": "in vitro", "result": 39.1, "unit": "µM"},
      {"measurement": "Selectivity index (SI) A549", "setting": "WI-38; cytotoxicity against WI-38 / cytotoxicity against A549", "result": 4.77},
      {"measurement": "Selectivity index (SI) HCT-116", "setting": "WI-38; cytotoxicity against WI-38 / cytotoxicity against HCT-116", "result": 2.00},
      {"measurement": "HillSlope (best-fit value), WI-38", "setting": "WI-38; supplement graph", "result": -0.4504},
      {"measurement": "LogIC50 (best-fit value), WI-38", "setting": "WI-38; supplement graph", "result": 1.593}
    ]}
  ]
}
